The test system of one assay is LC3. The experiment in a line: Autophagy induction (LC3-II levels and LC3 puncta) in HEK293T cells. The note with it: SLC38A9 knockout and wild type HEK293T, 100 μM GPN. The assay is classed as cell-based. As to the method: (A) Analysis of mTOR activity and autophagy induction in HEK293T cells (WT, wild type) and SLC38A9 knockout (SLC38A9 KO) HEK293T derivatives treated with 100 μM GPN in full medium for the indicated time points. mTOR activity was monitored by immunoblotting analysis of S6K1 phosphorylation at T389 (p-T389). Autophagy induction was monitored by immunoblotting analysis of LC3-II. (B) Analysis of autophagy induction in SLC38A9 KO cells treated with GPN. WT and SLC38A9-KO (SLCKO) HEK293T cells were treated with 100 μM GPN in full medium for 30 min, and LC3 puncta were quantified by HC. […] Data, means±SEM, n≥3 independent experiments (500 primary objects counted per well; ≥ 5 wells/sample per each experiment), **p<0.01, ANOVA. […] WT and SLC38A9 KO HEK293T cells were treated with 100 μM GPN for 1 h followed by 1 h washout in full medium. mTOR activity was monitored by immunoblotting analysis of S6K1 p-T389 and ULK1 p-S757 phosphorylation. Autophagy induction was monitored by immunoblotting analysis of LC3-II. […] Control and FLAG-SLC38A9 overexpressing HEK293T cells were treated with 100 μM GPN in full medium for 30 min, and LC3 puncta were quantified by HC. […] Data, means±SEM, n≥3 independent experiments (500 primary objects counted per well; ≥5 wells/sample per each experiment), **p<0.01, ANOVA. […]

A further assay concerns Gal8. Briefly: Immunoprecipitation of endogenous Gal8 complexes in THP-1 cells. The note with it: 100 μM GPN 1 h. The assay is classed as cell-based. On the procedure: (A) Analysis of the puncta formation of galectins in response to GPN. HeLa cells overexpressing YFP-fused with the indicated galectins were treated with 100 μM GPN or without (Ctrl) in full medium for 1 h and galectin puncta were quantified by HC. […] White masks, algorithm defined cell boundaries (primary objects); green masks, computer-identified galectins puncta (target objects). Data, means±SEM, n≥3 independent experiments (500 primary objects counted per well; ≥5 wells/sample per each experiment); *p<0.05, **p<0.01, † p≥0.05, ANOVA. (B) Immunoprecipitation analysis of the interactions between galectins and mTOR or RagA GTPase. HEK293T cells overexpressing FLAG-tagged galectins were subjected to anti-FLAG immunoprecipitation followed by immunoblotting for endogenous mTOR or RagA. (C) Immunoprecipitation analysis of interactions between Gal8 and mTOR protein complexes in response to GPN treatment. THP-1 cells not treated or treated with 100 μM GPN in full medium for 1 h were subjected to immunoprecipitation with anti-Gal8 antibody, followed by immunoblotting for endogenous RagA, p14, mTOR or Raptor. (D) Analysis of the proximity of Gal8 to mTOR and other proteins in mTOR complexes in response to GPN. Biotinylated proteins from HEK293T cell expressing APEX2-vector or APEX2-Gal8, after GPN and biotin phenol (BP) treatment were affinity-enriched by binding to streptavidin-beads, and samples were analyzed by immunoblotting analysis for endogenous RagA, p14, mTOR or Raptor. Data, means±SEM, (n=3), **p<0.01, ANOVA. (E) Immunoprecipitation analysis of the interactions between Gal8 and RagA GTPase and its mutants. Lysates of HEK293T cells overexpressing FLAG-Gal8 and HA-tagged RagA proteins (RagAWT, RagAT21L or RagAQ66L) were subjected to anti-FLAG immunoprecipitation, followed by immunoblotting for HA-tagged RagA proteins. (F) Immunoprecipitation analysis of the interactions between Gal8 and RagC GTPase and its mutants. […]

Peptide text beside a SMILES is read from it.

Consider `NCC(=O)N[C@@H](Cc1ccccc1)C(=O)Nc1ccc2ccccc2c1` [GPN, glycyl-L-phenylalanine 2-naphththylamide] (HELM PEPTIDE1{G.F.[c1ccc2cc(N[*:1])ccc2c1]}$$$$V2.0), for which the “LC3-II levels and LC3 puncta” value in the assay with LC3 is “increased robustly”. Moreover, in the assay with Gal8, the “association between Gal8 and LAMTOR2/p14” value is “increased association”; the “association between Gal8 and RagA” value is “increased”; the “levels of Raptor and mTOR in complexes with Gal8” value was “reduced levels”.
